Measured values reported in patent US11278514B2, “Composition compromising dunnione as effective ingredient for prevention or alleviation of hair loss” (NADIANBIO LTD., priority 2018, dated 2022).

How the values were obtained:
NQO1 knockout mice [1] = conditions: cyclophosphamide alone (150 mg/kg i.p.), until day 18
Experimental: (§1) The day, on which the NQO1 knockout mice were hair-removed according to Example 1, was set as day 0, and the animals were divided into the following experimental groups and used for experiments: normal group (Control, 4 animals) in which only PBS is intraperitoneally injected on day 9; cyclophosphamide group (CYP, 6 animals) in which cyclophosphamide (150 mg/kg) is intraperitoneally injected on day 9; combination-treated group (CYP+Dunnione, 6 animals) in which dunnione is orally administered on a daily basis starting from 3 days prior to treatment with cyclophosphamide; and dunnione alone-treated group (Dunnione, 4 animals) in which only dunnione (20 mg/kg) is administered (FIG. 1).

NF-κB p65 = experiment: Acetylation of NF-κB p65 in skin tissue (western blot), cyclophosphamide alopecia model; assay type: in vivo, mice; conditions: cyclophosphamide alone; day 18
Experimental: (§2) In the cyclophosphamide-induced alopecia mouse model of Example 2, expression level of Sirt1 protein and acetylation reaction of the target proteins thereof, NF-κB p65 and p53, were identified on the skin tissue obtained on day 18 after hair removal.
(§3) Specifically, 10 mg of the skin tissue obtained from the animal model prepared by the method in Example 2 was homogenized by addition of a lysis solution (RIPA lysis buffer). Then, centrifugation was performed at 14,000 rpm for 10 minutes. The protein concentration in the supernatant was quantified with a bovine serum albumin (BSA) standard solution. The skin tissue protein was used in an amount of 40 μg per test solution. First, the homogenized skin tissue was mixed with a sample solution (Bio-Rad, 161-0747) and inactivated at a temperature of 95° C. for 5 minutes. Thereafter, the protein was separated by a sodium dodecyl sulfate-polyacrylamide gel electrophoresis (SDS-PAGE) method, and then transferred to a nitrocellulose membrane. Treatment with anti-Sirt1 antibody (Abcam), anti-acetyl NF-κB p65 antibody and anti-acetyl p53 antibody (Cell Signaling Technologies), and anti-β-actin antibody (Santa Cruz Biotechnology) as primary antibodies were performed, and reaction was allowed to proceed. […]

Sirt1 = Sirt1 activity in skin tissue (fluorescent Sirt1 detection kit), cyclophosphamide alopecia model; assay type: in vivo, mice; conditions: cyclophosphamide alone; day 18
Experimental: In addition, the skin tissue obtained from the animal model prepared by the method in Example 2 was homogenized. The homogenized skin tissue was tested with the fluorescent Sirt1 detection kit (BML-AK555-0001) of Enzo Life Sciences International, Inc. according to the instruction manual, and then Sirt1 activity was analyzed. 40 μg of the homogenized skin tissue was mixed with a reaction solution (Fluor de Lys-Sirt1, NAD+, buffer solution (25 mM Tris-HCl (pH8.0), 137 mM NaCl, 2.7 mM […], 1 mM MgCl2, and 1 mg/mL BSA)), and reaction was allowed to proceed at a temperature of 37° C. for 1 hour. Then, additional reaction was allowed to proceed for 5 minutes under a condition in which a developer is added. In order to check the final Sirt1 activity, readings were measured for the reaction solution using the CytoFluor series 4000 fluorometer (PerSeptive Biosystems, Inc., USA) with the excitation wavelength set to 360 nm and the emission to 460 nm.

NAD^+ = experiment: NAD+ and NADH concentrations and NAD+/NADH ratio in skin tissue, cyclophosphamide alopecia model; assay type: in vivo, mice; conditions: cyclophosphamide alone vs normal group; day 18
Experimental: Specifically, in order to quantify the NAD^+ and NADH concentrations in the skin tissue obtained from the animal model prepared by the method in Example 2, the skin tissue was tested with the analysis kit (E2ND-100) of BioAssay Systems according to the instruction manual, and then the NAD^+/NADH ratio was analyzed. First, 10 mg of skin tissue was collected from the animal model. Then, 100 μl of extraction solution for NAD^+ or NADH was added to the skin tissue and homogenized. Then, the homogenized skin tissue was subjected to heat treatment at 60° C. for 5 minutes. Neutralization was performed by addition of the same volume of the extraction solution, and then centrifugation was performed at 14,000 rpm for 5 minutes to obtain the supernatant. Then, a developing reagent was added to the supernatant. The NAD^+ and NADH concentrations were determined from the absorbance measured at a wavelength of 565 nm, and the NAD^+/NADH ratio was analyzed.

patients = conditions: cancer patients; Batchelor D., Eur J Cancer Care, 2001; cited from earlier work
NQO1 knockout mice [2] = conditions: cyclophosphamide alone, day 18
Experimental: as §1
(§4) The day, on which the NQO1 knockout mice were hair-removed according to Example 1, was set as day 0, and the mice in each of the experimental groups described in Example 3 were sacrificed on day 18. Subsequently, the mouse dorsal skin was dissected parallel or perpendicular to the vertebral line, and removed. The removed skin was fixed with a Bouin's solution for 12 hours, subjected to dehydration, and embedded in paraffin. Then, the resulting product was prepared into 5-μm sections. The prepared sections were subjected to hematoxylin and eosin (H&E) staining, and histological changes in the skin in each experimental group were observed.

p53 = experiment: Acetylation of p53 in skin tissue (western blot), cyclophosphamide alopecia model; assay type: in vivo, mice; conditions: cyclophosphamide alone; day 18
Experimental: as §2, §3

[3] = system: C57BL/6 mice having alopecia caused by cyclophosphamide; conditions: cyclophosphamide alone (150 mg/kg i.p.); day 18
Experimental: as §1, with “the” for “the NQO1 knockout”, “in” for “according to”, “groups:” for “experimental groups and used for experiments:”
as §4, with “the” for “the NQO1 knockout”, “in” for “according to”, “2” for “3”

Sirt1 protein = experiment: Expression level of Sirt1 protein in skin tissue (western blot), cyclophosphamide alopecia model; assay type: in vivo, mice; conditions: cyclophosphamide alone; day 18
Experimental: as §2, §3

Structure (SMILES): O=P1(N(CCCl)CCCl)NCCCO1 (stereo not shown) [cyclophosphamide, reference compound]
- hair growth, visual observation of skin (NQO1 knockout mice [1]): hair hardly grew until day 18 after hair removal
- acetylation of NF-κB p65 in skin tissue (NF-κB p65): increased
- Sirt1 activity in skin tissue (Sirt1): decreased
- NAD^+ concentration in skin tissue (NAD^+): decreased
- NAD^+/NADH ratio in skin tissue (NAD^+): decreased
- patients in whom the agent causes CIA (patients): ≥ 60%
- development of hair follicles and inner root sheaths (histology) (NQO1 knockout mice [2]): the hair follicles have poorly developed or the inner root sheaths have insufficiently developed
- acetylation of p53 in skin tissue (p53): increased
- development of hair follicles and inner root sheaths (histology) [3]: the hair follicles have poorly developed or the inner root sheaths have insufficiently developed
- expression level of Sirt1 protein in skin tissue (Sirt1 protein): decreased
